Measurements from paper PMC12363518, “Azobenzene-Modified Temperature-Responsive Short Elastin-like Peptides for Photo-Controlled Phase Transition” (ACS Synthetic Biology, 2025).
Numbered stars: 1 amine (or outer) side, 2 acyl side, 3 side chain; on linkers, the order of the positions; unused ones are H or OH. Bridge positions count the residues as written; N and C are the ends. Peptide text beside a SMILES is read from it. I, II: the chains in the order shown. X1 = O=C(c1ccc(N=Nc2ccc(C(=O)[*:2])cc2)cc1)[*:1]

Tests used:
[1] = Thermal isomerization in the dark and photostationary state, followed by UV–vis spectroscopy; assay type: physicochemical
Method: The thermal stability of the ELP–azobenzene conjugates was also investigated by using UV–vis spectroscopy. After measurements under “UV–vis–UV” conditions, each peptide solution was incubated in the dark, and spectral changes were monitored over time (Figure ). […] These findings indicate that the photoswitching behavior of this peptide was more readily controllable than that of the other analogues.
Additionally, the isomerization of Azb-2(K-F2) to a cis-enriched state was induced by irradiation with UV-A light (365 nm), which is a commercially available light source (Figure S4). […] On the other hand, when an LED light with a higher irradiance than that used for spectrum measurements was used as the light source, Azb-2(K-F2) reached a photostationary state in approximately 5 min (Figure S4B). Overall, based on the experimental results, Azb-2(K-F2) appears to be a promising easy-to-handle peptide with both temperature and photoresponsiveness.
The synthesized ELP–azobenzene conjugates were dissolved in PBS buffer (137 mM NaCl, 2.68 mM KCl, 10 mM Na2HPO4, and 2 mM KH2PO4, pH 7.4) to prepare 50 μM solutions. The time-dependent UV–vis spectra of each conjugate were recorded using a JASCO V-660 spectral photometer (JASCO Co., Tokyo) in a quartz cell (optical path length: 10 mm, volume: 400 μL). […] Initially, the absorption spectra of the dark-adapted solution of the ELP–azobenzene conjugate were measured to determine the irradiation wavelength corresponding to its π–π* band. Subsequently, the ELP–azobenzene conjugate solution was irradiated with light corresponding to the π–π* band for 60 min and the absorption spectra were recorded every 10 min. Next, the peptide solution was irradiated with visible light corresponding to the n–π* band for 60 min and the absorption spectra were recorded every 10 min. The peptide solution was then irradiated again with UV light for 60 min and the absorption spectra were recorded every 10 min. Finally, the peptide solution was incubated in the dark conditions and the absorption spectra were recorded every 1 h. […]

In the case of CC(C)[C@H](NC(=O)CNC(=O)[C@@H]1CCCN1C(=O)[C@H](Cc1ccccc1)NC(=O)CNC(=O)[C@@H](NC(=O)CNC(=O)[C@@H]1CCCN1C(=O)[C@H](Cc1ccccc1)NC(=O)[C@H](CCCCN)NC(=O)c1ccc(N=Nc2ccc(C(=O)N[C@@H](CCCCN)C(=O)N[C@@H](Cc3ccccc3)C(=O)N3CCC[C@H]3C(=O)NCC(=O)N[C@H](C(=O)NCC(=O)N[C@@H](Cc3ccccc3)C(=O)N3CCC[C@H]3C(=O)NCC(=O)N[C@H](C(=O)NCC(=O)O)C(C)C)C(C)C)cc2)cc1)C(C)C)C(=O)NCC(=O)O [Azb-2(K-F2)] (I: KFPGVGFPGVG-OH / II: KFPGVGFPGVG-OH; linker I:N-II:N via X1), the “thermal stability of the cis-enriched state, 12 h” value ([1]; 37 °C for 12 h, light-protected, 50 μM in PBS, UV–vis spectra) is reported as “remained in a cis-enriched state”, the “time to reach the photostationary state with LED light” value ([1]; UV-A 365 nm LED of higher irradiance than for the spectrum measurements) is reported as “approximately 5 min” and the “thermal stability of the cis-enriched state, 3 days” value ([1]; dark, after 3 days, UV–vis spectra (Figure S3)) is reported as “retained its cis-isomer-enriched state”. For the same molecule, the peak wavelength π–π* was 330 nm.
